Key:
XMD8-85 + Trametinib = compound: CN1CCN(CC1)C2=CC(=C(C=C2)NC3=NC=C4C(=N3)N(C5=CC=CC=C5C(=O)N4C)C)OC [XMD8-85] + CC(=O)Nc1cccc(-n2c(=O)n(C3CC3)c(=O)c3c(Nc4ccc(I)cc4F)n(C)c(=O)c(C)c32)c1 [Trametinib] (partner 0.02 µM); assay: relative viability (nuclei count vs DMSO), 5 days (fraction); higher = more cells survive
How it was run: (§1)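 Relative viability is defined as nuclei in treated wells over nuclei in vehicle wells. Duplicate plates were run and medians reported. Lung cancer cell lines in 1536-well plates were dosed by pin tool one day after seeding, with one drug or with a fixed anchor-drug dose plus five library-drug doses (not always all listed) in √10 steps, and nuclei were counted after 5 days.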

4EGI-1 + Dasatinib = compound: O=C(O)C(Cc1ccccc1[N+](=O)[O-])=NNc1nc(-c2ccc(Cl)c(Cl)c2)cs1 (mixture of isomers) [4EGI-1] + Cc1nc(Nc2ncc(C(=O)Nc3c(C)cccc3Cl)s2)cc(N2CCN(CCO)CC2)n1 [Dasatinib] (partner 0.075 µM); assay: as above
How it was run: as §1

| Cell Line | relative viability (XMD8-85 + Trametinib; first compound 0.08 µM) | relative viability (XMD8-85 + Trametinib; first compound 0.253 µM) | relative viability (XMD8-85 + Trametinib; first compound 0.8 µM) | relative viability (XMD8-85 + Trametinib; first compound 2.53 µM) | relative viability (XMD8-85 + Trametinib; first compound 8 µM) | relative viability (4EGI-1 + Dasatinib; first compound 0.5 µM) | relative viability (4EGI-1 + Dasatinib; first compound 1.581 µM) | relative viability (4EGI-1 + Dasatinib; first compound 5 µM) | relative viability (4EGI-1 + Dasatinib; first compound 15.81 µM) | relative viability (4EGI-1 + Dasatinib; first compound 50 µM) |
| --- | --- | --- | --- | --- | --- | --- | --- | --- | --- | --- |
| ChaGo-K-1 | 0.926 | 0.908 | 0.944 | 0.962 | 0.668 | 0.661 | 0.629 | 0.639 | 0.48 | 0.25 |
| NCI-H727 | 0.373 | 0.375 | 0.405 | 0.37 | 0.368 | 0.323 | 0.436 | 0.344 | 0.272 | 0.23 |
| NCI-H2009 | 0.26 | 0.237 | 0.261 | 0.253 | 0.18 | 0.344 | 0.302 | 0.312 | 0.269 | 0.146 |
| NCI-H23 | 0.419 | 0.402 | 0.369 | 0.28 | 0.24 | 0.896 |  | 0.85 | 0.79 | 0.496 |
| NCI-H2228 | 0.354 | 0.57 | 0.379 | 0.387 | 0.181 | 0.472 | 0.653 | 0.496 | 0.552 | 0.13 |

From the supplement of paper PMC10307832
